Counter-ions that a name gives are not always drawn.
Experiments:
[1] = biological target: S. aureus CrtM (dehydrosqualene synthase) (Staphylococcus aureus, UniProt A9JQL9); test: CrtM enzyme inhibition assay; assay type: biochemical
[2] = biological target: human squalene synthase (SQS) (Homo sapiens, UniProt P37268); assay type: biochemical; details: experimental data
[3] = test system: S. aureus; details: mice treated with 1, compared to control group; cited from earlier work
[4] = test system: STX biosynthesis in S. aureus; test: Staphyloxanthin biosynthesis inhibition assay; assay type: cell-based; details: Staphylococcus aureus, 72 h, read-out: staphyloxanthin IC50

Sequence of S. aureus CrtM (dehydrosqualene synthase) (A9JQL9 whole entry): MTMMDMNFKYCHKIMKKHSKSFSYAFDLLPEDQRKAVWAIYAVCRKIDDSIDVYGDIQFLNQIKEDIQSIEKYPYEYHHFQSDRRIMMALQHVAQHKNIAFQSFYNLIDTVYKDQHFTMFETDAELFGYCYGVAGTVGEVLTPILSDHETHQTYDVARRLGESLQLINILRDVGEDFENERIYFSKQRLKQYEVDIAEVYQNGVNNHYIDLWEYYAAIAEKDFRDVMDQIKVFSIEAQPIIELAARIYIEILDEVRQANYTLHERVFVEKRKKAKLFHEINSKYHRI
Sequence of human squalene synthase (SQS) (P37268 31-370): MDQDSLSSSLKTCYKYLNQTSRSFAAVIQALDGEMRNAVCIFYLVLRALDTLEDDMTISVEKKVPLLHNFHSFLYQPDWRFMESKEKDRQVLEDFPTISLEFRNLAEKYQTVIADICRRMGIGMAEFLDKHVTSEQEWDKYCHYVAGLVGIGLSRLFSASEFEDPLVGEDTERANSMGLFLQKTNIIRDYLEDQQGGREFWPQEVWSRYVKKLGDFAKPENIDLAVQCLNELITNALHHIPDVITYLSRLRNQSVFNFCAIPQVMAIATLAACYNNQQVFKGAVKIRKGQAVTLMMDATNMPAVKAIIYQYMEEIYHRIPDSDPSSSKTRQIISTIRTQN

In the case of `O=P([O-])([O-])C(CCCc1ccc(-c2ccc(C(F)(F)F)cc2)cc1)P(=O)([O-])[O-].[K+].[K+].[K+].[K+]` [Compound 3], the IC50 [1] is reported as 0.182 µM and the “pIC50(CrtM) – pIC50(hSQS)” value [2] is reported as −1.86 M.
For `O=P([O-])([O-])C(CCCc1cccc(Oc2ccccc2)c1)S(=O)(=O)[O-].[K+].[K+].[K+]` (stereo not shown) [Compound 1, 1-Phosphono-4-(3-phenoxyphenyl)butylsulfonic Acid Tripotassium Salt], the “bacterial counts in kidneys reduced” value [3] is given as 98%.
In the case of `O=P([O-])([O-])C(CCCc1cccc(Oc2ccccc2Cc2ccccc2)c1)S(=O)(=O)[O-].[K+].[K+].[K+]` (stereo not shown) [Compound 8, 1-Phosphono-4-[3-(2-benzylphenoxy)phenyl]butylsulfonic Acid Tripotassium Salt], the “less active than 1 in CrtM inhibition” value [1] is reported as “≈ 5 ×”.
In the case of `O=P([O-])([O-])C(CCc1cccc(Oc2ccccc2)c1)S(=O)(=O)[O-].[K+].[K+].[K+]` (stereo not shown) [Compound 15, 1-Phosphono-3-(3-phenoxyphenyl)propylsulfonic Acid Tripotassium Salt], the “pIC50(CrtM) – pIC50(hSQS)” value [2] is reported as −2.96 M.
Compound `O=P(O)(O)C(CCCc1cccc(Oc2ccc(O)cc2)c1)S(=O)(=O)O` (stereo not shown) [Compound 27, 1-Phosphono-4-[3-(4-hydroxyphenoxy)phenyl]butylsulfonic Acid Tripotassium Salt] has an IC50 [4] of 6.8 µM.
With `O=P([O-])([O-])C(Cc1cccc(Oc2ccccc2)c1)S(=O)(=O)[O-].[K+].[K+].[K+]` (stereo not shown) [Compound 14, 1-Phosphono-2-(3-phenoxyphenyl)ethylsulfonic Acid Tripotassium Salt] the “pIC50(CrtM) – pIC50(hSQS)” value [2] was −2.66 M.
With `CCCc1ccc(Oc2cccc(CCCC(P(=O)([O-])[O-])S(=O)(=O)[O-])c2)cc1.[K+].[K+].[K+]` (stereo not shown) [Compound 6, 1-Phosphono-4-[3-(4-propylphenoxy)phenyl]butylsulfonic Acid Tripotassium Salt] the “as active as 1 in CrtM inhibition” value [1] was about 4 ×.
For `O=P([O-])([O-])C(CCCc1cccc(Oc2ccc(F)cc2)c1)S(=O)(=O)[O-].[K+].[K+].[K+]` (stereo not shown) [Compound 5, 1-Phosphono-4-[3-(4-fluorophenoxy)phenyl]butylsulfonic Acid Tripotassium Salt], the “as active as 1 in CrtM inhibition” value [1] was about 4 ×.
With `O=P([O-])([O-])[C@H](CCCc1cccc(Oc2ccccc2)c1)S(=O)(=O)[O-].[K+].[K+].[K+]` [Compound (S)-1, (1S)-1-Phosphono-4-(3-phenoxyphenyl)butylsulfonic Acid Tripotassium Salt] the “more active than its (R)-enantiomer in CrtM inhibition” value ([1]; fold) was about 30 ×.

From publication PMC2765255 (Journal of medicinal chemistry, 2009)
